Results taken from ChEMBL document CHEMBL1201862, “PubChem BioAssay data set” (2004).
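A five-concentration, 48-hour dose response in 96-well plates underlies each endpoint, interpolated linearly between surrounding concentrations. GI50 = concentration required for 50% inhibition of growth.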 Calls of active or inactive are those of the source. Cut-off read from the data, not from the text of the source: active = GI50 up to about 1.1 µM and inactive = higher.

Tests used:
Test in all cases: growth of human tumour cells (NCI), 48 h
RPMI-8226 = test system: RPMI-8226
HT-29 = test system: HT-29
SW-620 = test system: SW-620
SR = test system: SR
K562 = test system: K562
U-251 = test system: U-251
A549 = test system: A549
HCT-15 = test system: HCT-15
NCI-H226 = test system: NCI-H226
Hs-578T = test system: Hs-578T
OVCAR-3 = test system: OVCAR-3
HOP-62 = test system: HOP-62
NCI-H23 = test system: NCI-H23
BT-549 = test system: BT-549
M14 = test system: M14
OVCAR-5 = test system: OVCAR-5
ACHN = test system: ACHN
CAKI-1 = test system: CAKI-1
HL-60 = test system: HL-60
A498 = test system: A498
MDA-N = test system: MDA-N
KM12 = test system: KM12
HCT-116 = test system: HCT-116
CCRF-CEM = test system: CCRF-CEM
DU-145 = test system: DU-145
SK-MEL-2 = test system: SK-MEL-2
SK-MEL-5 = test system: SK-MEL-5
UACC-257 = test system: UACC-257
RXF 393 = test system: RXF 393
PC-3 = test system: PC-3
TK-10 = test system: TK-10
MDA-MB-435 = test system: MDA-MB-435
UACC-62 = test system: UACC-62
NCI-H460 = test system: NCI-H460
MDA-MB-231 = test system: MDA-MB-231
UO-31 = test system: UO-31
COLO 205 = test system: COLO 205
SNB-75 = test system: SNB-75
NCI-H522 = test system: NCI-H522
HCC 2998 = test system: HCC 2998
LOX IMVI = test system: LOX IMVI
EKVX = test system: EKVX
OVCAR-8 = test system: OVCAR-8
SK-MEL-28 = test system: SK-MEL-28
786-0 = test system: 786-0
MOLT-4 = test system: MOLT-4
SNB-19 = test system: SNB-19
SF-295 = test system: SF-295
SF-268 = test system: SF-268
T47D = test system: T47D
NCI/ADR-RES = test system: NCI/ADR-RES
SN12C = test system: SN12C
MCF7 = test system: MCF7
SF-539 = test system: SF-539
OVCAR-4 = test system: OVCAR-4
HOP-92 = test system: HOP-92
SK-OV-3 = test system: SK-OV-3
IGROV-1 = test system: IGROV-1
Malme-3M = test system: Malme-3M

Measured: GI50

CN(C)c1ccc(/C=C/C(=O)N[C@@H]2C(=O)N3[C@@H]2SC(C)(C)[C@@H]3C(=O)O)cc1
inactive: RPMI-8226 > 100 µM | HT-29 > 100 µM | SW-620 > 100 µM | SR > 100 µM | K562 > 100 µM | U-251 > 100 µM | A549 > 100 µM | NCI-H226 > 100 µM | Hs-578T > 100 µM | OVCAR-3 > 100 µM | HOP-62 > 100 µM | NCI-H23 > 100 µM | BT-549 > 100 µM | M14 > 100 µM | OVCAR-5 > 100 µM | ACHN > 100 µM | CAKI-1 > 100 µM | HL-60 > 100 µM | A498 > 100 µM | MDA-N > 100 µM | KM12 > 100 µM | HCT-116 58.9 µM | CCRF-CEM > 100 µM | DU-145 > 100 µM | SK-MEL-2 > 100 µM | SK-MEL-5 > 100 µM | UACC-257 > 100 µM | RXF 393 > 100 µM | PC-3 > 100 µM | TK-10 > 100 µM | MDA-MB-435 > 100 µM | UACC-62 > 100 µM | NCI-H460 > 100 µM | MDA-MB-231 > 100 µM | UO-31 > 100 µM | COLO 205 > 100 µM | SNB-75 > 100 µM | NCI-H522 > 100 µM | HCC 2998 > 100 µM | LOX IMVI > 100 µM | EKVX > 100 µM | OVCAR-8 > 100 µM | SK-MEL-28 > 100 µM | 786-0 > 100 µM | MOLT-4 > 100 µM | SNB-19 > 100 µM | SF-295 > 100 µM | SF-268 > 100 µM | T47D > 100 µM | NCI/ADR-RES > 100 µM | SN12C > 100 µM | MCF7 > 100 µM | SF-539 > 100 µM | OVCAR-4 > 100 µM
> 100 µM: HCT-15

O=C(O)COc1cc(-c2ccccc2)nc2ccccc12
inactive: RPMI-8226 86.7 µM | HT-29 35.4 µM | SW-620 59.7 µM | SR 63 µM | K562 36.8 µM | U-251 71.9 µM | HOP-92 > 100 µM | A549 66.4 µM | NCI-H226 > 100 µM | SK-OV-3 73.3 µM | Hs-578T 62.4 µM | IGROV-1 56.4 µM | OVCAR-3 > 100 µM | HOP-62 95.9 µM | NCI-H23 77.6 µM | BT-549 > 100 µM | M14 71 µM | OVCAR-5 > 100 µM | ACHN > 100 µM | CAKI-1 > 100 µM | HL-60 41.2 µM | A498 65.3 µM | MDA-N 26.1 µM | KM12 50.1 µM | HCT-116 36.8 µM | CCRF-CEM 56.2 µM | DU-145 > 100 µM | SK-MEL-2 > 100 µM | SK-MEL-5 33.9 µM | UACC-257 > 100 µM | PC-3 > 100 µM | TK-10 > 100 µM | MDA-MB-435 16 µM | UACC-62 > 10 µM | NCI-H460 48 µM | MDA-MB-231 > 100 µM | UO-31 61.4 µM | COLO 205 51.1 µM | Malme-3M > 100 µM | SNB-75 41.5 µM | NCI-H522 77.4 µM | HCC 2998 > 100 µM | LOX IMVI 99.8 µM | EKVX > 100 µM | OVCAR-8 > 100 µM | SK-MEL-28 73.3 µM | 786-0 81.8 µM | MOLT-4 47.2 µM | SNB-19 98.4 µM | SF-295 44.4 µM | SF-268 > 100 µM | T47D > 100 µM | NCI/ADR-RES 52.1 µM | SN12C > 100 µM | MCF7 49 µM | SF-539 70.8 µM | OVCAR-4 77.1 µM
36.9 µM: HCT-15

CCc1n[nH]c(=O)n1-n1c(C)ccc1C
> 100 µM: HCT-15
inactive: RPMI-8226 > 100 µM | HT-29 > 100 µM | SW-620 > 100 µM | SR > 100 µM | K562 > 100 µM | U-251 > 100 µM | A549 > 100 µM | NCI-H226 > 100 µM | SK-OV-3 > 100 µM | Hs-578T > 100 µM | IGROV-1 > 100 µM | OVCAR-3 > 100 µM | HOP-62 > 100 µM | BT-549 > 100 µM | M14 > 100 µM | OVCAR-5 > 100 µM | ACHN > 100 µM | CAKI-1 > 100 µM | A498 > 100 µM | MDA-N > 100 µM | KM12 > 100 µM | HCT-116 > 100 µM | CCRF-CEM > 100 µM | DU-145 > 100 µM | SK-MEL-2 > 100 µM | SK-MEL-5 > 100 µM | UACC-257 > 100 µM | RXF 393 > 100 µM | PC-3 > 100 µM | TK-10 > 100 µM | MDA-MB-435 > 100 µM | UACC-62 > 100 µM | NCI-H460 > 100 µM | MDA-MB-231 > 100 µM | UO-31 > 100 µM | COLO 205 > 100 µM | Malme-3M > 100 µM | SNB-75 > 100 µM | NCI-H522 > 100 µM | HCC 2998 > 100 µM | LOX IMVI > 100 µM | EKVX > 100 µM | OVCAR-8 > 100 µM | SK-MEL-28 > 100 µM | 786-0 > 100 µM | MOLT-4 > 100 µM | SNB-19 > 100 µM | SF-295 > 100 µM | SF-268 > 100 µM | T47D > 100 µM | NCI/ADR-RES > 100 µM | SN12C > 100 µM | MCF7 > 100 µM | OVCAR-4 > 100 µM

Nc1c(C(=O)O)nnc2ccc(Cl)cc12
inactive: RPMI-8226 > 100 µM | HT-29 > 100 µM | SW-620 > 100 µM | SR > 100 µM | K562 > 100 µM | U-251 > 100 µM | A549 > 100 µM | NCI-H226 41.8 µM | SK-OV-3 > 100 µM | Hs-578T > 100 µM | IGROV-1 > 100 µM | OVCAR-3 > 100 µM | HOP-62 > 100 µM | NCI-H23 > 100 µM | BT-549 > 100 µM | M14 > 100 µM | OVCAR-5 > 100 µM | ACHN > 100 µM | CAKI-1 > 100 µM | HL-60 > 100 µM | A498 58.6 µM | MDA-N > 100 µM | KM12 > 100 µM | HCT-116 > 100 µM | CCRF-CEM > 100 µM | DU-145 > 100 µM | SK-MEL-2 > 100 µM | SK-MEL-5 > 100 µM | UACC-257 > 100 µM | PC-3 > 100 µM | TK-10 > 100 µM | MDA-MB-435 > 100 µM | UACC-62 > 100 µM | NCI-H460 > 100 µM | MDA-MB-231 > 100 µM | UO-31 94.8 µM | COLO 205 > 100 µM | Malme-3M > 100 µM | SNB-75 > 100 µM | NCI-H522 > 100 µM | HCC 2998 > 100 µM | LOX IMVI > 100 µM | EKVX > 100 µM | OVCAR-8 > 100 µM | 786-0 > 100 µM | MOLT-4 > 100 µM | SNB-19 > 100 µM | SF-295 > 100 µM | SF-268 > 100 µM | T47D > 100 µM | NCI/ADR-RES > 100 µM | SN12C > 100 µM | MCF7 > 100 µM | SF-539 > 100 µM | OVCAR-4 > 100 µM
> 100 µM: HCT-15
